From US20240132484A1, “BROAD SPECTRUM ANTIVIRAL COMPOUNDS TARGETING THE SKI COMPLEX” (priority 2020, published 2024)
Several values for one entry are separate records, joined by “and”; a condition that tells them apart may be missing. Equal entries are not always repeated. Where two headings read alike, the source gives them in different places.

Assays:
cells (nuclei count) = conditions: for Relative cell count to DMSO controls, Average 1 μM / Relative cell count to DMSO controls, Average 5 μM / Relative cell count to DMSO controls, Average 10 μM / Relative cell count to DMSO controls, Average 25 μM / Relative cell count to DMSO controls, Average 50 μM: toxicity data, 100=DMSO control; for Toxicity Data, Average, Mean percentage relative to DMSO control: Average of Exp 1 (SMW491) and Exp 2 (SMW492); for Toxicity Data, Percentage Relative to Appropriate DMSO Control: single well; for Relative cell count to DMSO controls, Average (for correlation analysis): average value over the 5 tested concentrations (1 to 50 uM); for Toxicity Data, Average, Mean (percentage relative to appropriate DMSO control): average of Exp 1 and Exp 2, n=4
SARS2 = type: cell-based, SARS-CoV-2; conditions: for Infection Data, Average, Mean percentage infection relative to DMSO control: Average of Exp 1 (SMW491) and Exp 2 (SMW492); for Infection Data, Percentage Infection Relative to Appropriate DMSO Control: single well, avg background subtraction; for Percentage Inhibition Average 1 μM / Screening data (Relative infection to DMSO controls) Average 1 μM: SARS2, 1 μM; for Screening data (Relative infection to DMSO controls) Average 1 μM / Screening data (Relative infection to DMSO controls) Average 5 μM / Screening data (Relative infection to DMSO controls) Average 10 μM / Screening data (Relative infection to DMSO controls) Average 25 μM / Screening data (Relative infection to DMSO controls) Average 50 μM / Average (relative infection to DMSO over the 5 tested concentrations): 100=DMSO control; for Percentage Inhibition Average 5 μM / Screening data (Relative infection to DMSO controls) Average 5 μM: SARS2, 5 μM; for Percentage Inhibition Average 10 μM / Screening data (Relative infection to DMSO controls) Average 10 μM: SARS2, 10 μM; for Percentage Inhibition Average 25 μM / Screening data (Relative infection to DMSO controls) Average 25 μM: SARS2, 25 μM; for Percentage Inhibition Average 50 μM / Screening data (Relative infection to DMSO controls) Average 50 μM: SARS2, 50 μM; for Average (relative infection to DMSO over the 5 tested concentrations): SARS2, average over 1 to 50 uM; for Infection Data, Percentage Infection Relative to Appropriate DMSO Control with Avg Background Subtraction: duplicate wells, listed as SICLS61; for Infection Data, Average, Mean (Percentage Infection Relative to Appropriate DMSO Control): average of Exp 1 and Exp 2, n=4

COc1ccc(CNCCc2ccccc2F)c(OCC(O)CN2CCN(C)CC2)c1 (centres unmarked) [SILCS46]
Relative cell count to DMSO controls, Average 1 μM (cells (nuclei count)): 103.33 | Relative cell count to DMSO controls, Average 5 μM (cells (nuclei count)): 131.17 | Relative cell count to DMSO controls, Average 10 μM (cells (nuclei count)): 126.44 | Relative cell count to DMSO controls, Average 25 μM (cells (nuclei count)): 117.77 | Relative cell count to DMSO controls, Average 50 μM (cells (nuclei count)): 107.72 | Toxicity Data, Average, Mean percentage relative to DMSO control (cells (nuclei count); n=4, 1 uM): 103.33% | Toxicity Data, Average, Mean percentage relative to DMSO control (cells (nuclei count); n=4, 5 uM): 131.17% | Toxicity Data, Average, Mean percentage relative to DMSO control (cells (nuclei count); n=4, 10 uM): 126.44% | Toxicity Data, Average, Mean percentage relative to DMSO control (cells (nuclei count); n=4, 25 uM): 117.77% | Toxicity Data, Average, Mean percentage relative to DMSO control (cells (nuclei count); n=4, 50 uM): 107.72% | Toxicity Data, Percentage Relative to Appropriate DMSO Control (cells (nuclei count); Exp 1 (SMW491), 1 uM): 87% and 86% | Toxicity Data, Percentage Relative to Appropriate DMSO Control (cells (nuclei count); Exp 1 (SMW491), 5 uM): 124% and 137% | Toxicity Data, Percentage Relative to Appropriate DMSO Control (cells (nuclei count); Exp 1 (SMW491), 10 uM): 126% and 116% | Toxicity Data, Percentage Relative to Appropriate DMSO Control (cells (nuclei count); Exp 1 (SMW491), 25 uM): 118% and 101% | Toxicity Data, Percentage Relative to Appropriate DMSO Control (cells (nuclei count); Exp 1 (SMW491), 50 uM): 84% and 108% | Toxicity Data, Percentage Relative to Appropriate DMSO Control (cells (nuclei count); Exp 2 (SMW492), 1 uM): 100% and 140% | Toxicity Data, Percentage Relative to Appropriate DMSO Control (cells (nuclei count); Exp 2 (SMW492), 5 uM): 120% and 143% | Toxicity Data, Percentage Relative to Appropriate DMSO Control (cells (nuclei count); Exp 2 (SMW492), 10 uM): 134% and 130% | Toxicity Data, Percentage Relative to Appropriate DMSO Control (cells (nuclei count); Exp 2 (SMW492), 25 uM): 117% and 135% | Toxicity Data, Percentage Relative to Appropriate DMSO Control (cells (nuclei count); Exp 2 (SMW492), 50 uM): 118% and 121% | Relative cell count to DMSO controls, Average (for correlation analysis) (cells (nuclei count)): 117.29 | SARS2 antiviral activity (SARS2): lower activity | Infection Data, Average, Mean percentage infection relative to DMSO control (SARS2; n=4, 1 uM): 72.12% | Infection Data, Average, Mean percentage infection relative to DMSO control (SARS2; n=4, 5 uM): 0.77% | Infection Data, Average, Mean percentage infection relative to DMSO control (SARS2; n=4, 10 uM): 21.64% | Infection Data, Average, Mean percentage infection relative to DMSO control (SARS2; n=4, 25 uM): 0.03% | Infection Data, Average, Mean percentage infection relative to DMSO control (SARS2; n=4, 50 uM): 0.84% | Infection Data, Percentage Infection Relative to Appropriate DMSO Control (SARS2; Exp 1 (SMW491), 1 uM): 73.61% and 132.86% | Infection Data, Percentage Infection Relative to Appropriate DMSO Control (SARS2; Exp 1 (SMW491), 5 uM): −0.70% and 0.86% | Infection Data, Percentage Infection Relative to Appropriate DMSO Control (SARS2; Exp 1 (SMW491), 10 uM): −2.65% and −0.77% | Infection Data, Percentage Infection Relative to Appropriate DMSO Control (SARS2; Exp 1 (SMW491), 25 uM): −3.35% and 0.11% | Infection Data, Percentage Infection Relative to Appropriate DMSO Control (SARS2; Exp 1 (SMW491), 50 uM): 2.55% and −4.15% | Infection Data, Percentage Infection Relative to Appropriate DMSO Control (SARS2; Exp 2 (SMW492), 1 uM): 49.01% and 32.97% | Infection Data, Percentage Infection Relative to Appropriate DMSO Control (SARS2; Exp 2 (SMW492), 5 uM): 0.99% and 1.92% | Infection Data, Percentage Infection Relative to Appropriate DMSO Control (SARS2; Exp 2 (SMW492), 10 uM): 47.59% and 42.39% | Infection Data, Percentage Infection Relative to Appropriate DMSO Control (SARS2; Exp 2 (SMW492), 25 uM): 0.98% and 2.39% | Infection Data, Percentage Infection Relative to Appropriate DMSO Control (SARS2; Exp 2 (SMW492), 50 uM): 3.90% and 1.08% | Percentage Inhibition Average 1 μM (SARS2): 27.88% | Screening data (Relative infection to DMSO controls) Average 1 μM (SARS2): 72.12 | Percentage Inhibition Average 5 μM (SARS2): 99.23% | Screening data (Relative infection to DMSO controls) Average 5 μM (SARS2): 0.77 | Percentage Inhibition Average 10 μM (SARS2): 78.36% | Screening data (Relative infection to DMSO controls) Average 10 μM (SARS2): 21.64 | Percentage Inhibition Average 25 μM (SARS2): 99.97% | Screening data (Relative infection to DMSO controls) Average 25 μM (SARS2): 0.03 | Percentage Inhibition Average 50 μM (SARS2): 99.16% | Screening data (Relative infection to DMSO controls) Average 50 μM (SARS2): 0.84 | Average (relative infection to DMSO over the 5 tested concentrations) (SARS2): 19.08

CC1=C(C(=O)NC2CCCCCC2)C(c2cccs2)NC(=O)N1 (centres unmarked) [SILCS61]
Toxicity Data, Average, Mean (percentage relative to appropriate DMSO control) (cells (nuclei count); 1 uM): 106.46% | Relative cell count to DMSO controls, Average 1 μM (cells (nuclei count)): 106.46 | Toxicity Data, Average, Mean (percentage relative to appropriate DMSO control) (cells (nuclei count); 5 uM): 110.71% | Relative cell count to DMSO controls, Average 5 μM (cells (nuclei count)): 110.71 | Toxicity Data, Average, Mean (percentage relative to appropriate DMSO control) (cells (nuclei count); 10 uM): 107.86% | Relative cell count to DMSO controls, Average 10 μM (cells (nuclei count)): 107.86 | Toxicity Data, Average, Mean (percentage relative to appropriate DMSO control) (cells (nuclei count); 25 uM): 109.52% | Relative cell count to DMSO controls, Average 25 μM (cells (nuclei count)): 109.52 | Toxicity Data, Average, Mean (percentage relative to appropriate DMSO control) (cells (nuclei count); 50 uM): 104.46% | Relative cell count to DMSO controls, Average 50 μM (cells (nuclei count)): 104.46 | Relative cell count to DMSO controls, Average (for correlation analysis) (cells (nuclei count)): 107.80 | Infection Data, Percentage Infection Relative to Appropriate DMSO Control with Avg Background Subtraction (SARS2; 1 uM, Exp 1 (SMW506)): 73.61% and 82.18% | Infection Data, Percentage Infection Relative to Appropriate DMSO Control with Avg Background Subtraction (SARS2; 1 uM, Exp 2 (SMW492), SILCS 61-66 and 67-72 plates): 57.97% and 58.62% | Infection Data, Average, Mean (Percentage Infection Relative to Appropriate DMSO Control) (SARS2; 1 uM): 68.10% | Infection Data, Percentage Infection Relative to Appropriate DMSO Control with Avg Background Subtraction (SARS2; 5 uM, Exp 1 (SMW506)): 41.43% and 63.29% | Infection Data, Percentage Infection Relative to Appropriate DMSO Control with Avg Background Subtraction (SARS2; 5 uM, Exp 2 (SMW492), SILCS 61-66 and 67-72 plates): 38.94% and 52.11% | Infection Data, Average, Mean (Percentage Infection Relative to Appropriate DMSO Control) (SARS2; 5 uM): 48.94% | Infection Data, Percentage Infection Relative to Appropriate DMSO Control with Avg Background Subtraction (SARS2; 10 uM, Exp 1 (SMW506)): 73.81% and 87.85% | Infection Data, Percentage Infection Relative to Appropriate DMSO Control with Avg Background Subtraction (SARS2; 10 uM, Exp 2 (SMW492), SILCS 61-66 and 67-72 plates): 33.45% and 32.58% | Infection Data, Average, Mean (Percentage Infection Relative to Appropriate DMSO Control) (SARS2; 10 uM): 56.92% | Infection Data, Percentage Infection Relative to Appropriate DMSO Control with Avg Background Subtraction (SARS2; 25 uM, Exp 1 (SMW506)): 51.60% and 90.77% | Infection Data, Average, Mean (Percentage Infection Relative to Appropriate DMSO Control) (SARS2; 25 uM): 43.41% | Infection Data, Percentage Infection Relative to Appropriate DMSO Control with Avg Background Subtraction (SARS2; 50 uM, Exp 1 (SMW506)): −4.48% and −4.80% | Infection Data, Percentage Infection Relative to Appropriate DMSO Control with Avg Background Subtraction (SARS2; 50 uM, Exp 2 (SMW492), SILCS 61-66 and 67-72 plates): 11.69% and 10.06% | Infection Data, Average, Mean (Percentage Infection Relative to Appropriate DMSO Control) (SARS2; 50 uM): 3.12% | Percentage Inhibition Average 1 μM (SARS2): 31.90% | Screening data (Relative infection to DMSO controls) Average 1 μM (SARS2): 68.10 | Percentage Inhibition Average 5 μM (SARS2): 51.06% | Screening data (Relative infection to DMSO controls) Average 5 μM (SARS2): 48.94 | Percentage Inhibition Average 10 μM (SARS2): 43.08% | Screening data (Relative infection to DMSO controls) Average 10 μM (SARS2): 56.92 | Percentage Inhibition Average 25 μM (SARS2): 56.59% | Screening data (Relative infection to DMSO controls) Average 25 μM (SARS2): 43.41 | Percentage Inhibition Average 50 μM (SARS2): 96.88% | Screening data (Relative infection to DMSO controls) Average 50 μM (SARS2): 3.12 | Average (relative infection to DMSO over the 5 tested concentrations) (SARS2): 44.10

COc1ccc(-c2[nH]ncc2C(=O)NCC2CCC2)cc1OC [SILCS54]
Relative cell count to DMSO controls, Average 1 μM (cells (nuclei count)): 100.58 | Relative cell count to DMSO controls, Average 5 μM (cells (nuclei count)): 101.65 | Relative cell count to DMSO controls, Average 10 μM (cells (nuclei count)): 100.51 | Relative cell count to DMSO controls, Average 25 μM (cells (nuclei count)): 99.71 | Relative cell count to DMSO controls, Average 50 μM (cells (nuclei count)): 88.29 | Relative cell count to DMSO controls, Average (for correlation analysis) (cells (nuclei count)): 98.15 | Percentage Inhibition Average 1 μM (SARS2): 0.61% | Screening data (Relative infection to DMSO controls) Average 1 μM (SARS2): 99.39 | Percentage Inhibition Average 5 μM (SARS2): 7.12% | Screening data (Relative infection to DMSO controls) Average 5 μM (SARS2): 92.88 | Percentage Inhibition Average 10 μM (SARS2): 10.70% | Screening data (Relative infection to DMSO controls) Average 10 μM (SARS2): 89.30 | Percentage Inhibition Average 25 μM (SARS2): −5.10% | Screening data (Relative infection to DMSO controls) Average 25 μM (SARS2): 105.10 | Percentage Inhibition Average 50 μM (SARS2): −13.08% | Screening data (Relative infection to DMSO controls) Average 50 μM (SARS2): 113.08 | Average (relative infection to DMSO over the 5 tested concentrations) (SARS2): 99.95
